We go through two molecules from patent US7189710B2, “C2-fluoro pyrrolo [2,1−c][1,4]benzodiazepine dimers” (Council of Scientific and Industrial Research, priority 2004, dated 2007).

One assay concerns SF-268 (CNS). The assay can be described thus: In vitro one dose primary anticancer assay. The format is cell-based, human. The following applies: one dose at 10^−4 molar concentration. As to the method: (§1) Biological Activity: In vitro biological activity studies were carried out at National Cancer Institute (USA).
For the next assay, the system named is MCF7 (Breast). The assay can be described thus: In vitro one dose primary anticancer assay. The format is cell-based, human. The following applies: one dose at 10^−4 molar concentration. As to the method:
as §1

The next assay has as its system NCI-H460 (Lung). The assay can be described thus: In vitro one dose primary anticancer assay. The following applies: one dose at 10^−4 molar concentration. Type of assay: cell-based, human. The method, then:
as §1

Assay [1] deals with sixty human tumour cells derived from nine cancer types. Description: NCI in vitro cytotoxicity screen, sixty human tumour cell lines, SRB assay, 48 h (mean graph midpoints). The following applies: 48 h continuous drug exposure, mean over human tumour cell lines; for Log10LC5O mean graph midpoint (MG_MID): 50% cell death (−50% growth); for GI50: 50% cell growth inhibition, read-out: Log10 GI50 mean graph midpoint (MG_MID) (converted); for Log10 TGI mean graph midpoint (MG_MID): total cell growth inhibition (0% growth). The format is cell-based. As to the method:
as §1
(§2) Cytotoxicity: Compounds IXa and IXc were evaluated for in vitro against sixty human tumour cells derived from nine cancer types (leukemia, non-small-cell lung, colon, CNS, melanoma, ovarian, prostate, and breast cancer). For each compound, dose response curves against each cell line were measured at a minimum of five concentrations at 10 fold dilutions. A protocol of 48 h continuous drug exposure was used and a sulforhodamine B (SRB) protein assay was used to estimate cell viability or growth. The concentration causing 50% cell growth inhibition (GI50), total cell growth inhibition (TGI, 0% growth) and 50% cell death (LC50, −50% growth) compared with the control was calculated.
(In SRB staining, fixed cells bind dye roughly in proportion to their protein.)

For assay [2], the system named is leukemia cancer cell lines. The assay can be described thus: NCI in vitro cytotoxicity, SRB assay, average per cancer type. Type of assay: cell-based. The following applies: Homo sapiens; average of six to eight different cancer cell lines; read-out: Log GI50 (inhibitory concentration), leukemia (converted). The method, then: as §1, §2
(§3) Each cancer type represent the average of six to eight different cancer cell lines.

The test system of another assay is CNS cancer cell lines. The assay is described as above. Type of assay: cell-based. The following applies: Homo sapiens; average of six to eight different cancer cell lines; read-out: Log GI50 (inhibitory concentration), CNS (converted). The method, then: as §1, §2, §3
The test system of a further assay is colon cancer cell lines. The assay is described as above. The format is cell-based. Conditions: Homo sapiens; average of six to eight different cancer cell lines; read-out: Log GI50 (inhibitory concentration), colon (converted). As to the method:
as §1, §2, §3

The test system of assay [3] is prostate cancer cell lines. The assay is described as above. The following applies: Homo sapiens; average of six to eight different cancer cell lines; read-out: Log GI50 (inhibitory concentration), prostate (converted). Type of assay: cell-based. As to the method:
as §1, §2, §3

The test system of assay [4] is non-small-cell lung cancer cell lines. The description is as above. The format is cell-based. Conditions: Homo sapiens; average of six to eight different cancer cell lines; read-out: Log GI50 (inhibitory concentration), non-small-cell lung (converted). As to the method: as §1, §2, §3
The test system of another assay is renal cancer cell lines. The description is as above. Type of assay: cell-based. The following applies: Homo sapiens; average of six to eight different cancer cell lines; read-out: Log GI50 (inhibitory concentration), renal (converted). The method, then: as §1, §2, §3
Assay [5] concerns ovarian cancer cell lines. The description is as above. The format is cell-based. The following applies: Homo sapiens; average of six to eight different cancer cell lines; read-out: Log GI50 (inhibitory concentration), ovarian (converted). As to the method: as §1, §2, §3
A further assay relates to breast cancer cell lines. The description is as above. The format is cell-based. The following applies: Homo sapiens; average of six to eight different cancer cell lines; read-out: Log GI50 (inhibitory concentration), breast (converted). The method, then: as §1, §2, §3
Assay [6] relates to melanoma cancer cell lines. The assay is described as above. The format is cell-based. The following applies: Homo sapiens; average of six to eight different cancer cell lines; read-out: Log GI50 (inhibitory concentration), melanoma (converted). The method, then:
as §1, §2, §3

With `COc1cc2c(cc1OCCCCCOc1cc3c(cc1OC)C(=O)N1C[C@@H](F)C[C@H]1C=N3)N=C[C@@H]1C[C@H](F)CN1C2=O` [IXc], the “Growth percentages (CNS) SF-268” value in the assay on SF-268 (CNS) stood at 0%. In addition, the “Growth percentages (Breast) MCF7” value in the assay on MCF7 (Breast) turned out to be 0%. For the same molecule, in the assay with NCI-H460 (Lung), the “Growth percentages (Lung) NCI-H460” value came to 0%. The “Log10LC5O mean graph midpoint (MG_MID)” value in assay [1] was −4.87. Also, the GI50 in assay [1] is 72.4 nM; in assay [2] it was 16.1 nM; in the assay on CNS cancer cell lines it was 23.7 nM; with colon cancer cell lines it was 86.3 nM; in [3] it was 37.2 nM; in assay [4], 48.1 nM. In addition, the GI50 in the assay with renal cancer cell lines is 32.2 nM; in assay [5], 240 nM; in the assay with breast cancer cell lines, 58.3 nM; in assay [6], 50 nM. For the same molecule, the “Log10 TGI mean graph midpoint (MG_MID)” value in assay [1] is listed as −6.27.

For `COc1cc2c(cc1OCCCOc1cc3c(cc1OC)C(=O)N1C[C@@H](F)C[C@H]1C=N3)N=C[C@@H]1C[C@H](F)CN1C2=O` [IXa], the “Growth percentages (CNS) SF-268” value in the assay on SF-268 (CNS) stood at 0%. For the same molecule, the “Growth percentages (Breast) MCF7” value in the assay with MCF7 (Breast) was determined as 0%. Further, the “Growth percentages (Lung) NCI-H460” value in the assay with NCI-H460 (Lung) turned out to be 0%. Also, the “Log10LC5O mean graph midpoint (MG_MID)” value in assay [1] is reported as −4.31. For the same molecule, the GI50 in assay [1] is 6170 nM; in [2] it was 2150 nM; in the assay on CNS cancer cell lines, 2860 nM; in the assay on colon cancer cell lines, 5190 nM; in [3], 6610 nM; in assay [4], 5520 nM. Moreover, the GI50 is 4840 nM in the assay on renal cancer cell lines, 4900 nM in [5], 3240 nM with breast cancer cell lines and 3240 nM in assay [6]. In assay [1], the “Log10 TGI mean graph midpoint (MG_MID)” value is on record as −4.75.
